Laboratory results from patent publication US11833178B2, “Bifidobacterium longum for treating obesity and weight management” (priority 2017, dated 2023).
Values after ≈ are worked out from the molar mass of the structure shown. Like-named read-outs stand apart in the source and are kept apart here.

Test system: Bifidobacterium longum APC1472
Assay: Antibiotic susceptibility (VetMIC plates, ISO 10932:2010)
Assay type: cell-based, Bifidobacterium longum ssp. longum
Details: read-out: MICs
Description: Antibiotic susceptibility was tested with […] plates Lact-1 and Lact-2 supplied from SVA (National Veterinary Institute, Uppsala, Sweden). […] MICs were determined as 80% or more reduction in pellet, compared to positive control lane. Borderline cases were interpreted by visual examples from “Methods for Antimicrobial Susceptibility Testing of Anaerobic Bacteria: Approved Standard” (CLSI, 7th edition).

[1] = APC1472, range of MICs for duplicate experiments, 37° C., 48 h

| Structure (SMILES) | MIC [1] [µg/mL] | MIC (APC1472, 48 h) [µg/mL] |
| --- | --- | --- |
| [H]/N=C(/N)N[C@H]1[C@H](O)[C@@H](O)[C@H](O[C@@H]2O[C@@H](C)[C@](O)(C=O)[C@H]2O[C@@H]2O[C@@H](CO)[C@H](O)[C@@H](O)[C@@H]2NC)[C@@H](N/C(N)=N\[H])[C@@H]1O [Sm, Streptomycin] | 64 to 128 (≈ 110 to 220 µM) | – |
| O=C(N[C@H](CO)[C@H](O)c1ccc([N+](=O)[O-])cc1)C(Cl)Cl [Cm, Chloramphenicol] | 2 (≈ 6.19 µM) | – |
| CC1(C)S[C@@H]2[C@H](NC(=O)[C@H](N)c3ccccc3)C(=O)N2[C@H]1C(=O)O [Am, Ampicillin] | 2 (≈ 5.72 µM) | – |
| CN(C)[C@@H]1C(O)=C(C(N)=O)C(=O)[C@@]2(O)C(O)=C3C(=O)c4c(O)cccc4[C@@](C)(O)[C@H]3C[C@@H]12 [Tc, Tetracycline] | 1 (≈ 2.25 µM) | – |
| CN[C@H](CC(C)C)C(=O)N[C@H]1C(=O)N[C@@H](CC(N)=O)C(=O)N[C@H]2C(=O)N[C@H]3C(=O)N[C@H](C(=O)N[C@H](C(=O)O)c4cc(O)cc(O)c4-c4cc3ccc4O)[C@H](O)c3ccc(c(Cl)c3)Oc3cc2cc(c3O[C@@H]2O[C@H](CO)[C@@H](O)[C@H](O)[C@H]2O[C@H]2C[C@](C)(N)[C@H](O)[C@H](C)O2)Oc2ccc(cc2Cl)[C@H]1O [Va, Vancomycin] | – | 0.5 (≈ 0.345 µM) |
| CC[C@H]1OC(=O)[C@H](C)[C@@H](O[C@H]2C[C@@](C)(OC)[C@@H](O)[C@H](C)O2)[C@H](C)[C@@H](O[C@@H]2O[C@H](C)C[C@H](N(C)C)[C@H]2O)[C@](C)(O)C[C@@H](C)C(=O)[C@H](C)[C@@H](O)[C@]1(C)O [Em, Erythromycin] | 0.06 to 0.12 (≈ 0.0818 to 0.164 µM) | – |
